Each structure is given as a SMILES string.

`COC(=O)c1ccc(OCCNC(=O)C2Cc3ccccc3N2S(=O)(=O)c2ccc(-c3cccc(C(F)(F)F)c3)cc2)cc1Cl` (stereo not given) returned a melting point of 63 to 67 °C.

Regarding `CCOc1cc(Cc2ccc(Cl)cc2Cl)nc(-c2ccc3c(n2)CCCC3)n1`, the melting point was in the range of 98 to 100 °C.

`CCN(CC)CCCCC1CCN(CCNC(=O)N2c3ccccc3C(=O)Nc3cccnc32)CC1` displayed a melting point of 167 °C.

In turn, `CCOC(CBr)(OCC)c1csc(NC(=N)N)n1` registered a melting point of 157 to 158 °C.

The compound `O=S(=O)(NCC(O)(Cn1cncn1)c1ccc(Cl)cc1Cl)c1cc(Cl)ccc1Cl` (stereo not given) had a melting point of 173 to 174 °C.

The compound `CC1(CNC(=O)OCc2ccc(Cl)cc2)Cn2cc([N+](=O)[O-])nc2O1` (stereo not given) came in with a melting point of 221 to 222 °C.

In turn, `CCOC(=O)C=Cc1ccc(OCCN(C)c2ccccn2)cc1` gave a melting point of 80 to 81 °C.

Regarding `O=C1Nc2ccc(Br)cc2C12OCCCO2`, the melting point fell in the range of 166 to 168 °C.

`O=C(NCCCc1ccncc1)N1CCc2ccccc2C1` gave a melting point of 76 to 79 °C.

Regarding `COC(=O)c1cc(OCc2ccccc2)c(OCc2ccccc2)c(CSCC(=O)O)n1`, the melting point was 135 °C.

Regarding `CCCc1c(OCCOc2ccc(S(=O)(=O)c3nnn[nH]3)cc2)ccc(C(C)=O)c1O`, the melting point is 88 to 90 °C.

As for `O=S(=O)(Nc1cccc(CC2Cc3ccc(OCc4nc5cc(F)c(F)cc5s4)cc3C2O)c1)C(F)(F)F` (stereo not given), the melting point fell in the range of 170 to 172 °C.

The compound `COc1cc(OC)cc(C(=O)N2CCc3cc(OCc4ccccc4)c(OC)cc3C2=O)c1` had a melting point of 180 to 181 °C.

On to `Oc1ccc(C2N(c3ccccc3)CCN2c2ccccc2)c2cccnc12`, for which the melting point lay within 190 to 196 °C.

Consider `CCCS(=O)(=O)c1ccc(NS(=O)(=O)c2cccs2)c2[nH]c(C(=O)OCC)cc12`, for which the melting point was in the range of 201 to 202 °C.

For the compound `CC(=O)N(CCOc1cccc2ccccc12)c1ccc(C(=O)O)cc1`, the melting point lay within 182 to 183 °C.

`CC(Oc1cccc(Oc2ccc(C(F)(F)F)cc2)c1)C(=O)OCCS(=O)Cc1ccccc1` (stereo not given) had a melting point of 110 to 112 °C.

As for `CC(=O)N1CCC(n2nc(-c3c(-c4ccccc4)nn4ccccc34)ccc2=O)CC1`, the melting point fell in the range of 114 to 117 °C.

Regarding `O=C1CN(C(=O)c2ccccc2)c2cc(F)ccc2N1`, the melting point was 226 to 227 °C.

The compound `CCN1C(=O)Cc2cc3occc3cc21` gave a melting point of 112 to 113 °C.

The compound `O=C(c1ccc(C2CCCCC2)cc1)[C@H]1C[C@H]1C(=O)O` (relative stereo) yielded a melting point of 162 to 163 °C.

Regarding `COc1cccc(C(=O)N2CCCC(=O)c3ccc(Cl)cc3CCC2=O)c1`, the melting point was 105 to 106 °C.

`CCOC(=O)C(C#N)=Cc1cccc(C(F)(F)F)c1Cl`: the melting point worked out at 50 °C.

For the compound `CCOC(=O)C(Cc1ccccc1)=NO`, the melting point lay within 54 to 55 °C.

The compound `CC(c1ccccc1)N(C=O)CC#N` (single isomer, unassigned; (+)) gave a melting point of 78.9 °C.

The compound `CC(=O)Nc1ccn(C2CCC(CO)O2)c(=O)n1` (stereo not given) had a melting point of 143 to 145 °C.

Regarding `CC(C)(C)OC(=O)CNc1ccccc1F`, the melting point worked out at 70 °C.

On to `CC(C)Cc1cc2cc(O)c(Cl)c(Cl)c2s1`, for which the melting point lay within 58 to 59 °C.

With `CCOC(=O)c1ccc2nc(NC(C)=O)n(S(=O)(=O)N(C)C)c2c1`, the melting point fell in the range of 155 to 157 °C.

For `Nc1nc(Nc2cccnc2)nn1-c1ccccn1`, the melting point came to 256 °C.

`C=CCN(CC=C)c1cc(CCl)nc(N)n1` yielded a melting point of 53 to 55 °C.

Compound `COc1ccc2[nH]ncc2c1C` displayed a melting point of 148 to 149 °C.

`Oc1ccccc1-c1cc(Oc2ccc3cccnc3c2)ncn1` returned a melting point of 188 to 191 °C.

For the compound `CC(COc1cccc2oc(C#N)cc(=O)c12)OC=O` (stereo not given), the melting point is 113 to 115 °C.

In the case of `CCOC(=O)c1ccc(OCc2ccc3c(c2)C(C)(C)CCC3(C)C)cc1`, the melting point was 109 to 111 °C.

In turn, `O=C(NN1CCCC1=O)C(O)=CC(=O)c1cc(Cc2ccc(F)cc2F)cn(Cc2ccc(F)cc2)c1=O` yielded a melting point of 87 to 88 °C.

In turn, `O=C(c1ccc(-c2ccc(Cl)cc2)o1)C1CC1` gave a melting point of 88 to 89 °C.

Compound `CC1CCCC(C)N1S(=O)(=O)N[C@@H](Cc1ccc(NC(=O)c2c(Cl)cncc2Cl)cc1)C(=O)O` (stereo not given in full) yielded a melting point of 162 °C.

Compound `CC(C)(C)OC(=O)Nc1cc(OCc2ccccc2)cc(OCc2ccccc2)c1` came in with a melting point of 96 to 98 °C.

The compound `O=C(Nc1ccc(-n2nc(C3CC3)cc2C2CC2)cc1)c1ccc2nn[nH]c2c1` showed a melting point of 240 to 246 °C.

The compound `CCOC(=O)c1c(C)nc2ccc(NCCCN3CCC(OC(c4ccccc4)c4ccccc4)CC3)nn12` came in with a melting point of 117 to 119 °C.

`FC(F)(F)c1nnc(S)s1` displayed a melting point of 72 to 73 °C.

On to `COc1ccc(-c2nc3ccc(OC(F)(F)F)cc3[nH]2)cc1OCc1ccccc1`, for which the melting point was 226 to 228 °C.

In turn, `COC(=O)c1ccc(CBr)c(N(C)C(=O)OC)c1` returned a melting point of 99 to 102 °C.

On to `Nc1ccc(Br)cc1CO`, for which the melting point lay within 107 to 110 °C.

Compound `CC(O)C(C)N=[N+]([O-])c1ccc(O)cc1` (stereo not given) returned a melting point of 124 to 125 °C.

As for `CCC(C)(C)Nc1c(NCc2cc(C)cc(C)c2)c(=O)c1=O`, the melting point is 222 to 224 °C.

For the compound `CCOC(=O)Nc1ccc(OCc2ccc(Cl)nc2)cc1F`, the melting point was determined as 139 °C.

On to `CC(C)(C)C1=CC(O)(c2ccc(F)cc2)C=C(C(C)(C)C)C1=O`, for which the melting point was 123 to 125 °C.

In turn, `COCC1CN(c2cccnc2)C(=O)O1` (racemic) registered a melting point of 65 to 66 °C.

`COc1cccc(Sc2c(O)cc(-c3ccccc3)oc2=O)c1` yielded a melting point of 130 to 131 °C.

Compound `CCc1noc(-c2ccc(C)cc2)c1-c1ccc(S(N)(=O)=O)cc1` came in with a melting point of 191 °C.

On to `CC(=O)Nc1ccc2nc3[nH]c(=O)[nH]c3cc2c1`, for which the melting point was above 320 °C.

For `Clc1cc2ccccc2c(N2CCSCC2)n1`, the melting point was 133 °C.

For the compound `C[C@]12CCC(=O)N[C@@H]1CCc1cc(-c3ccc([N+](=O)[O-])cn3)ccc12`, the melting point lay in the range of 123 to 124 °C.

Compound `OC(CCN1CCN(c2ccccn2)CC1)COc1ccc(F)cc1` (stereo not given) yielded a melting point of 72 to 73 °C.

Turning to `CCOC1=NS(=O)(=O)c2ccc([N+](=O)[O-])cc21`, the melting point was in the range of 151 to 154 °C.

Regarding `CC(C)(CO)CCCCCCCCCCCC(C)(C)CO`, the melting point lay in the range of 45 to 47 °C.

For the compound `CS(=O)(=O)Nc1cc2occc(=O)c2cc1Oc1ccccc1NC=O`, the melting point was 203 to 204 °C.

Consider `O=C1C2=C(CCCC2)C(=O)N1c1ccc(F)cc1F`, for which the melting point was 73 to 74 °C.

Compound `CCCCCc1cc(N)cc(O)c1` registered a melting point of 88 to 91 °C.

Take `COc1cc(OCc2ccccn2)ccc1/C=C/c1cc(/C=C/c2cccc3[nH]ccc23)n[nH]1`: the melting point lay within 108 to 113 °C.

`CCOC(=O)c1cccn2c(C#N)c(-c3ccccc3)nc12` gave a melting point of 87 to 89 °C.

As for `COc1ccc(CN2CCCc3cc(OCc4ccccc4)c(OC)cc3C2)cc1`, the melting point is 87 to 88 °C.

Take `CC(=O)OC1CCC2(C)C(=CCC3C4=CCC(C(C)=O)C4(C)CCC32)C1` (stereo not given): the melting point was in the range of 205 to 208 °C.

The record behind these values is a melting point compilation (Tetko et al.; mined from patent text by program, amines drawn as free bases though some values may be those of a salt).
